Laboratory results reported in paper PMC10256634, “Comparative in vivo toxicokinetics of silver powder, nanosilver and soluble silver compounds after oral administration to rats” (Archives of Toxicology, 2023).
Values joined by “and” are separate entries in the source; they are usually repeats but may differ in a detail not shown here. Equal values may be shown once.

Tests used:
[1] = Toxicokinetics after 28 days repeated oral gavage dosing, total Ag in whole blood (ICP-MS); conditions: for AUC0-t / DN AUC0-t: 0 to 96 h post-dose
[2] = tested on: serum copper (Cu) levels; test: Serum Cu levels after 28 days repeated oral dosing (ICP-MS); conditions: for Serum Cu conc. % of Control group mean: mean (SD)
Procedure: Samples of whole blood (0.2 mL) were obtained from the jugular vein of animals, with lithium heparin integrated as an anticoagulant. […] Each sample was gently mixed and frozen on dry ice, pending transfer to storage at − 20 °C. […] Serum was obtained by centrifugation (10 min, 2000 RCF) and stored frozen until analysis.
Previous robust TK studies involving the analysis of Ag in biological matrices have utilised aggressive digestion techniques, typically based on digestion/mineralisation in concentrated HNO3 with microwave-accelerated reaction systems. To avoid subsequent precipitation of Ag into insoluble complexes and subsequent loss for analysis, sample stabilisation with an excess of chloride (e.g. HCl) is appropriate. These principles were adopted for sample processing in this investigation. In brief, each blood subsample (50 µL) was combined with 800 µL concentrated HNO3 (65–70%) in a glass pyrex tube. The contents were then digested in an Ultrawave (Milestone, Italy) digester using digestion programme ‘blood’. Afterwards, 800 μL HCl (37%) was added, and 400 μL of the HNO3/HCl digest was combined with 2.60 mL of rhodium internal standard followed by rotary mixing for at least 30 min. The processed sample was then analysed on an Agilent 7900 × inductively coupled plasma mass spectrometer (ICP-MS). […] The digestion was 20 min at elevated temperature and pressure (200 °C, 100 bar, 1500 W). Then, 3 parts of concentrated HCl (35–40%) were added, and the digest was stored at − 20 °C until analysis. A 50 µL subsample was subsequently mixed with 3.95 mL of rhodium internal standard and analysed by ICP-MS. Analysis occurred within the 48-day assured stability period.
All bioanalytical methods underwent validation before deployment. ICP-MS runs included quality control samples and a multilevel calibration. Lower limits of quantitation (LLOQ) for the analytical methods were, respectively, 10 ng/mL for total Ag in blood, 5 ng/mL for total Ag in tissue and 30 ng Cu/mL for Cu in serum.

[3] = Clinical observations, bodyweight, organ weights and macroscopic examination; assay type: in vivo, Sprague–Dawley rats; conditions: repeated dose study, 175 mg AgAc/kg bw/d
Procedure: Animals were inspected visually at least twice daily for evidence of clinical signs or change in health status. As applicable, injection sites were regularly assessed post-dosing for any local reaction. Bodyweight was measured for all single-dose treatments before administration (typically the day before treatment), on the day of administration and on the day of termination. For the 28-day repeated administration phase, the bodyweight of each animal was recorded pre-treatment, on Day 1 of treatment and then at weekly intervals (including on the day of termination).
Following final blood sampling, animals were euthanised using carbon dioxide asphyxiation, with subsequent exsanguination, prior to macroscopic examination for the investigation of any abnormalities. Tissues for analysis of total Ag content were obtained from animals administered the test items for 28 days. The tissue set comprised: brain (whole), bone marrow (from both femurs), small intestine (duodenum/ileum/jejenum), liver, spleen, ovaries, testes (excluding epididymides) and uterus. The luminal contents of GI tract samples were thoroughly flushed out with cold purified water. After weighing, tissues were retained frozen (− 20 °C).

[4] = 28 d oral 5 mg/kg bw/d [Ag equivalent 3.25 AgAc, 3.2 AgNO3], female
[5] = 28 d oral 5 mg/kg bw/d [Ag equivalent 3.25 AgAc, 3.2 AgNO3], male
[6] = 28 d oral 125 [80 Ag] mg/kg bw/d, female
[7] = 28 d oral 125 [80 Ag] mg/kg bw/d, male
[8] = 28 d oral 175 [114 Ag] mg/kg bw/d, female
[9] = 28 d oral 175 [114 Ag] mg/kg bw/d, male

O=[N+]([O-])[O-].[Ag+] [AgNO3, silver(I) nitrate]
AUC0-t [1, 4]: 7690 ng·h/mL | AUC0-t [1, 5]: 5470 ng·h/mL | Cmax [1, 4]: 177 ng/mL | Tmax [1, 4]: 6 h | t1/2 [1, 4]: 37.5 h | Cmax [1, 5]: 132 ng/mL | Tmax [1, 5]: 4.5 h | t1/2 [1, 5]: 42.1 h | AUC0-t [1, 6]: 54,100 ng.h/mL | AUC0-t [1, 7]: 42,800 ng.h/mL | Cmax [1, 6]: 997 ng/mL | Tmax [1, 6]: 18 h | t1/2 [1, 6]: 39.8 h | Cmax [1, 7]: 738 ng/mL | Tmax [1, 7]: 12 h | t1/2 [1, 7]: 42.0 h | Serum Cu conc. % of Control group mean ([2]; 28 d oral 5 [3.2 Ag] mg/kg bw/d, female): 101 (10) % of Control group mean | Serum Cu conc. % of Control group mean ([2]; 28 d oral 5 [3.2 Ag] mg/kg bw/d, male): 111 (25) % of Control group mean | Serum Cu conc. % of Control group mean ([2]; 28 d oral 55 [35 Ag] mg/kg bw/d, female): 81 (11) % of Control group mean | Serum Cu conc. % of Control group mean ([2]; 28 d oral 55 [35 Ag] mg/kg bw/d, male): 79 (13) % of Control group mean | Serum Cu conc. % of Control group mean [2, 6]: 74 % of Control group mean and 74 (15) % of Control group mean | Serum Cu conc. % of Control group mean [2, 7]: 62 % of Control group mean and 62 (12) % of Control group mean | Effect on circulating Cu levels ([2]; 28 d oral, AgMP up to limit dose 1000 mg/kg bw/d, AgNO3 detectable at 55, statistically significant at 125 mg/kg bw/d): reduction in circulating Cu levels was observed

CC(=O)[O-].[Ag+] [AgAc, Silver(I) acetate]
bodyweight [3]: slight depression in weight gain during Week 1 | AUC0-t [1, 4]: 10,200 ng.h/mL | DN AUC0-t [1, 4]: 2960 (ng.h/mL)/(mg/kg bw/d) | AUC0-t [1, 5]: 6220 ng·h/mL | DN AUC0-t [1, 5]: 1770 (ng.h/mL)/(mg/kg bw/d) | Cmax [1, 4]: 216 ng/mL | Tmax [1, 4]: 3 h | t1/2 [1, 4]: 41.3 h | Cmax [1, 5]: 153 ng/mL | Tmax [1, 5]: 7.5 h | t1/2 [1, 5]: 32.1 h | AUC0-t [1, 8]: 51,000 ng.h/mL | DN AUC0-t [1, 8]: 400 (ng.h/mL)/(mg/kg bw/d) | AUC0-t [1, 9]: 43,000 ng.h/mL | DN AUC0-t [1, 9]: 342 (ng.h/mL)/(mg/kg bw/d) | Cmax [1, 8]: 930 ng/mL | Tmax [1, 8]: 3 h | t1/2 [1, 8]: 40.4 h | Cmax [1, 9]: 766 ng/mL | Tmax [1, 9]: 3 h | t1/2 [1, 9]: 36.3 h
